This passage reports IC50 results from ChEMBL document CHEMBL1134625 (J Med Chem, 2001).

One assay concerns the target Cannabinoid receptor 1 (Homo sapiens, UniProt P21554).
Another assay has as its target T1, D(4) dopamine receptor (Homo sapiens, UniProt P21917).
T1 sequence (P21917 whole entry): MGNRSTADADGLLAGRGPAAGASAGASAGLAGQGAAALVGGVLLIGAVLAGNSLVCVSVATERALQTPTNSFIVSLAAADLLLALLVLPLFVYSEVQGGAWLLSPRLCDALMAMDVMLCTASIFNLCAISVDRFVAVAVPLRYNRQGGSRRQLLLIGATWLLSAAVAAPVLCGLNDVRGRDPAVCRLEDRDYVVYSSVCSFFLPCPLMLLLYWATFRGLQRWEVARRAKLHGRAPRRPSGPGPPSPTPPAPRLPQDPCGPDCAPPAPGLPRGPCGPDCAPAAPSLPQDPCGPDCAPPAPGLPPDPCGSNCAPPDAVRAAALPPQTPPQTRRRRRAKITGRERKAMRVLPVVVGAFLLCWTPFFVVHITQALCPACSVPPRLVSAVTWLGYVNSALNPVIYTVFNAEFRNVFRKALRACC

Assay [1] has as its target 5-hydroxytryptamine receptor 6 (Homo sapiens, UniProt P50406).
For assay [2], the target named is T2, Adrenergic receptor alpha-1 (Homo sapiens, UniProt P35348+P25100+P35368).
T2 sequence (P35348 whole entry): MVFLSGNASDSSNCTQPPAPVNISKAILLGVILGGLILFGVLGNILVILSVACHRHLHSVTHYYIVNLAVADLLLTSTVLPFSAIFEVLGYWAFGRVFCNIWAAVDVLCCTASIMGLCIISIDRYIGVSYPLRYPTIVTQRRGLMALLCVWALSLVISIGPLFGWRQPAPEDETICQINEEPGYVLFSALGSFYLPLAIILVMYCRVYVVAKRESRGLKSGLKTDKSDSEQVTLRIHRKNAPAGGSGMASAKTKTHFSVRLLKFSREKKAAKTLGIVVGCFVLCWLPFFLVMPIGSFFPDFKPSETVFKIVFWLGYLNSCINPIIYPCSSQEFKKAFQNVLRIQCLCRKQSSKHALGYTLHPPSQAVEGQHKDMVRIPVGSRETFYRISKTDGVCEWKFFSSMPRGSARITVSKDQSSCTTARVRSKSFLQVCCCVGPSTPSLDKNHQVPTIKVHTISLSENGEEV
T2 sequence (P25100 whole entry): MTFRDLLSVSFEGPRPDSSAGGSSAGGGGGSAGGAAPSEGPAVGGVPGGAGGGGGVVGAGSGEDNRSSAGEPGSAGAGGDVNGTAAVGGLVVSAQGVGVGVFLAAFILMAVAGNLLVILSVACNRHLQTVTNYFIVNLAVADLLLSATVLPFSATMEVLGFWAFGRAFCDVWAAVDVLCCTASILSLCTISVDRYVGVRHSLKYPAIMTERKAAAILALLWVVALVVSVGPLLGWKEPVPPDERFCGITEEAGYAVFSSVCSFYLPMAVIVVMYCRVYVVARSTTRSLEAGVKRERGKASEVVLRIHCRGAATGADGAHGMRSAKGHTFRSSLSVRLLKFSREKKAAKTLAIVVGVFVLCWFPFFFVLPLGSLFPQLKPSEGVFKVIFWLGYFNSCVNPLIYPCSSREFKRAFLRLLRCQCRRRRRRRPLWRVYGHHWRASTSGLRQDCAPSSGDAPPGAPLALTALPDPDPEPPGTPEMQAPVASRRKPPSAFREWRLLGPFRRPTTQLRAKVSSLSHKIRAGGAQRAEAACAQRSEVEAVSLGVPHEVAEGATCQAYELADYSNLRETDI
T2 sequence (P35368 whole entry): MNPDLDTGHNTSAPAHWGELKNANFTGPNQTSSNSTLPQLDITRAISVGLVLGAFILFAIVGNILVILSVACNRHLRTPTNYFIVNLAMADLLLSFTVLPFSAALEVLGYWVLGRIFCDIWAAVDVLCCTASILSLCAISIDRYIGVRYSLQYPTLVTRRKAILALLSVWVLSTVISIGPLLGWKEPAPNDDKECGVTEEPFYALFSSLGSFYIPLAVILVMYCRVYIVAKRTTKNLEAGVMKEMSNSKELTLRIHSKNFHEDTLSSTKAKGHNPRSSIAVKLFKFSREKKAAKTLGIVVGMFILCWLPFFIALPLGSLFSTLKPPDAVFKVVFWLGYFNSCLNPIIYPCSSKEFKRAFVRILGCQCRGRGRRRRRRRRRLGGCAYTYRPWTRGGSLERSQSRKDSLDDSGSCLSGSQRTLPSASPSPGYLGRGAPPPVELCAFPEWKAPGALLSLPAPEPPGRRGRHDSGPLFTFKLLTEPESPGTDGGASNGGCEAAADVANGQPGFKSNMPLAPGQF
The format is protein assay.

Structures are written as SMILES.

5-hydroxytryptamine receptor 6, sequence (P50406 whole entry): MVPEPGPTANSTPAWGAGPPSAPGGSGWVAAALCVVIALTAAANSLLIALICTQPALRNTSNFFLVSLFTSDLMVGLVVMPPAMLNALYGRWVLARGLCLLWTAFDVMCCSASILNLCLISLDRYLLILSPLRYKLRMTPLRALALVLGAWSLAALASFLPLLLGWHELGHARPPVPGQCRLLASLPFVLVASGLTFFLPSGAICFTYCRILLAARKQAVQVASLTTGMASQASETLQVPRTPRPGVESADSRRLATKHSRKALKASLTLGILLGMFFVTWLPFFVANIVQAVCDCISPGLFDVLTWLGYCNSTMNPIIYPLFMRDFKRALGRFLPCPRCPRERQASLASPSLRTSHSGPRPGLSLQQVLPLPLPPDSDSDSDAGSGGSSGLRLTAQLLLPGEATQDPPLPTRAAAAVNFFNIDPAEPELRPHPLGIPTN
Cannabinoid receptor 1, sequence (P21554 whole entry): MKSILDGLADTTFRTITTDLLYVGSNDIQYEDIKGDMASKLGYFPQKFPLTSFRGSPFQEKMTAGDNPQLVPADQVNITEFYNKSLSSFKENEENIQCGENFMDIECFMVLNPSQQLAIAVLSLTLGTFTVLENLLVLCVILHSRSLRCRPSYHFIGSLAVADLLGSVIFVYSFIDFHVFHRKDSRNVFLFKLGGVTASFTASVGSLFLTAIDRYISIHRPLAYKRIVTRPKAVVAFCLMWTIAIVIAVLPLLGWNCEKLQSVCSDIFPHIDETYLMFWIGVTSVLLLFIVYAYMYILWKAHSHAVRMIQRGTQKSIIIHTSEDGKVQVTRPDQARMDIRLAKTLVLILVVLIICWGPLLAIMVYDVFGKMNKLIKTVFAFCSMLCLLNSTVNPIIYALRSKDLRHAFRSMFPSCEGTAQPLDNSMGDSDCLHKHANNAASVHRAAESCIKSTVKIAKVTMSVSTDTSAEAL

As usually defined, the IC50 is the concentration at which inhibition is half-maximal. Low values mean higher potency, high ones lower potency. Turning to `N#Cc1ccc(CCOC(=O)NC2CCN(CCCC(c3ccc(F)cc3)c3ccc(F)cc3)CC2)cc1`, the IC50 on Cannabinoid receptor 1 was 6090 nM; on D(4) dopamine receptor, 543 nM; in assay [1], 427 nM; in assay [2] it was 417 nM.
